The values that follow come from US10322995B2, “Substituted cyano cycloalkyl penta-2,4-dienes, cyano cycloalkyl pent-2-en-4-ynes, cyano heterocyclyl penta-2,4-dienes and cyano heterocyclyl pent-2-en-4-ynes as active substances against abiotic plant stress” (BAYER CROPSCIENCE AKTIENGESELLSCHAFT, priority 2014, dated 2019).

The target in experiment [1] is T1, phosphatase ABI1 via the co-regulator RCAR11/PYR1 (Arabidopsis thaliana, UniProt O49686+P49597).
T1 sequence (O49686 1-191): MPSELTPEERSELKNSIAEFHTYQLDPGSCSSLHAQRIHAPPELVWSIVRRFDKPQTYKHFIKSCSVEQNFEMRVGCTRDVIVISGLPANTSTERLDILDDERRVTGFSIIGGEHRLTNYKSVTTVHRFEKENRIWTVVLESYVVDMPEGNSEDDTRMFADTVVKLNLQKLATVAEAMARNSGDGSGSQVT
T1 sequence (P49597 1-434): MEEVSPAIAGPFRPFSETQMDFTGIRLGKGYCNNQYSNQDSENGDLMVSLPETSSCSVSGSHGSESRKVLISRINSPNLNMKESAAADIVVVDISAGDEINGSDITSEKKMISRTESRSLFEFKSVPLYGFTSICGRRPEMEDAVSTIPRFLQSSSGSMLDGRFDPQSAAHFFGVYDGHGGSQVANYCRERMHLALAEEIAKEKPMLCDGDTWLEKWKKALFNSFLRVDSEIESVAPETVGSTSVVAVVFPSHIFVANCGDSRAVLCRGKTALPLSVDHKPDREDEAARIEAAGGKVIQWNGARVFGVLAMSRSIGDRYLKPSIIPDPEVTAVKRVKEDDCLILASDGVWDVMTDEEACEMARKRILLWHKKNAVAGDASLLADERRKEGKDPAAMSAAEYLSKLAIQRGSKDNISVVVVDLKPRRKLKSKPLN
As to the kind of experiment: In vitro assay: inhibition of the phosphatase ABI1 via the co-regulator RCAR11/PYR1, MUP dephosphorylation, fluorescence. It counts as biochemical. The following applies: concentration of 5 mM of the substance in a solution of DMSO and water; MUP dephosphorylation, fluorescence 460 nm. The source says:
Effects of the phytohormone abscisic acid (ABA) on the behaviour of plants under abiotic stress and the mechanism of action of ABA are described in the literature (cf. Abrams et al, WO97/23441, Cutler, Park et al. Science, 2009, 324, 1068; Grill et al. Science, 2009, 324, 1064; Tanokura et al. Biophysics, 2011, 7, 123; Schroeder et al. Plant J. 2010, 61, 290). Therefore, it is possible with the aid of a suitable in vitro test system to derive a correlation between the action of ABA and the stress response of a plant under abiotic stress. Under drought stress, plants form the phytohormone abscisic acid (ABA). This binds, along with a co-regulator (Regulatory Component of ABA-Receptor=RCAR according to Grill et al. Science, 2009, 324, 1064 or PYR/PYL according to Cutler et al. Science, 2009, 324, 1068), to a phosphatase (e.g. ABI1, a type 2C protein phosphatase, also abbreviated to PP2C) and inhibits its activity. As a result, a “downstream” kinase (e.g. SnRK2) is no longer dephosphorylated. This kinase, which is thus active, via phosphorylation of transcription factors (e.g. AREB/ABF, vgl. Yoshida et al., Plant J. 2010, 61, 672), switches on a genetic protection programme to increase drought stress tolerance.
The assay described hereinafter utilizes the inhibition of the phosphatase ABI1 via the co-regulator RCAR11/PYR1 aus Arabidopsis thaliana.
For the determination of activity, the dephosphorylation of 4-methylumbelliferyl phosphate (MUP) was measured at 460 nm. The in vitro assay was conducted in Greiner 384-well PS microplates F-well, using two controls: a) dimethyl sulphoxide (DMSO) 0.5% (f.c.) and b) 5 μM (f.c.) abscisic acid (ABA). […] The substance solution thus obtained, if necessary, was stirred with esterase from porcine liver (EC 3.1.1.1) at room temperature for 3 h and centrifuged at 4000 rpm for 30 min. A total volume of 45 μl was introduced into each cavity of the microplate, having the following composition: • 1) 5 μl of substance solution, i.e. a) DMSO 5% or b) abscisic acid solution or c) the corresponding example compound of the general formula (I) dissolved in 5% DMSO. • 2) 20 μl of enzyme buffer mix, composed of a) 40% by vol. of enzyme buffer (10 ml contain equal proportions by volume of 500 mM Tris-HCl pH8, 500 mM NaCl, 3.33 mM MnCl2, 40 mM dithiothreitol (DTT)), b) 4% by vol. of ABI1 dilution (protein stock solution was diluted so as to give, after addition, a final concentration in the assay of 0.15 μg ABI1/well), c) 4% by vol. of RCAR11 dilution (enzyme stock was diluted so as to give, on addition of the dilution to the enzyme buffer mix, a final concentration in the assay of 0.30 μg enzyme/well), d) 5% by vol. of Tween20 (1%), e) 47% by vol. H2O bi-dist. • 3) 20 μl of substrate mix, composed of a) 10% by vol. of 500 mM Tris-HCl pH8, b) 10% by vol. of 500 mM NaCl, c) 10% by vol. of 3.33 mM MnCl2, d) 5% by vol. of 25 mM MUP, 5% by vol. of Tween20 (1%), 60% by vol. of H2O bi-dist.
Enzyme buffer mix and substrate mix were made up 5 minutes prior to the addition and warmed to a temperature of 35° C. On completion of pipetting of all the solutions and on completion of mixing, the plate was incubated at 35° C. for 20 minutes. Finally, a relative fluorescence measurement was made at 35° C. with a BMG Labtech “POLARstar Optima” microplate reader using a 340/10 nm excitation filter and a 460 nm emission filter. The efficacy of the compounds of the general formula (I) is reported in the table which follows using abscisic acid (No. 64) as comparative substance according to the following classification: ++++ (inhibition≥90%), +++ (90%>inhibition≥70%), ++ (70%>inhibition≥50%), +(50%>inhibition≥30%).
Effects of selected compounds of the general formula (I) in the above-described in vitro assay at a concentration of 5 mM of the substance of the general formula (I) in question in a solution of DMSO and water: […]

Another experiment relates to Brassica napus (BRSNS). As to the kind of experiment: In vivo analyses Part C: drought stress, appearance vs stressed control plants in categories (BRSNS). Also noted: key: 0: no positive effect; 10: slight positive effect; 20: clear positive effect; 30: strong positive effect. The following applies: appearance vs stressed control plants after recovery phase, efficacy range of 3-4 pots. As for the experimental part:
Seeds of monocotyledonous and dicotyledonous crop plants were sown in sandy loam in plastic or wood-fibre pots, covered with soil or sand and cultivated in a greenhouse under good growth conditions. The test plants were treated at the early leaf stage (BBCH10-BBCH13). To assure uniform water supply before commencement of stress, the potted plants were supplied with water by dam irrigation prior to substance application. The inventive compounds were first formulated as wettable powders (WP) or dissolved in a solvent mixture. The further dilution was effected with water supplemented with 0.2% wetting agent (e.g. agrotin). The finished spray liquor was sprayed onto the green parts of the plant at an equivalent water application rate of 600 I/ha. Substance application was followed immediately by stress treatment of the plants. For this purpose, the wood-fibre pots were transferred in plastic inserts in order to prevent them from subsequently drying out too quickly. Drought stress was induced by gradual drying out under the following conditions: “Day”: 14 hours with illumination at 26-30° C. “Night”: 10 hours without illumination at 18-20° C. The duration of the respective stress phases was guided mainly by the condition of the stressed control plants. It was ended (by re-irrigating and transfer to a greenhouse with good growth conditions) as soon as irreversible damage was observed on the stressed control plants. The end of the stress phase was followed by an about 4-7-day recovery phase, during which the plants were once again kept under good growth conditions in a greenhouse. The duration of the recovery phase was guided mainly by when the trial plants had attained a state which enabled visual scoring of potential effects, and was therefore variable. Once this juncture had been reached, the appearance of the plants treated with test substances was recorded in comparison to the stressed control plants by the following categories: [table] For each substance and dosage, 3-4 pots were treated and evaluated. BRSNS=Brassica napus

With `COC(=O)C=C(C#CC(O)(c1ccc(C)cc1)C1(C#N)CC1)C(F)(F)F` (racemic) [I.1-812], the ABI1 inhibition entry in experiment [1] is on record as “+++ (90%>inhibition≥70%)”. The “Effect (BRSNS)” value in the experiment on Brassica napus (BRSNS) (dosage 250 g/ha) is 10-20.

As to `CCCOC(=O)C=C(C#CC(O)(C(CC)CC)C1(C#N)CC1)C(F)(F)F` (racemic) [I.1-887], the ABI1 inhibition entry in experiment [1] is listed as “+++ (90%>inhibition≥70%)”. Moreover, in the experiment with Brassica napus (BRSNS) (dosage 250 g/ha), the “Effect (BRSNS)” value is on record as 10-20.

`CCC(C=CC(O)(C(C)C)C1(C#N)CC1)=CC(=O)OC` (racemic) [I.2-102]: in experiment [1], the ABI1 inhibition result is “++++ (inhibition≥90%)”. In addition, the “Effect (BRSNS)” value with Brassica napus (BRSNS) (dosage 250 g/ha) was 10-20.

`CCCOC(=O)C=C(C=CC(O)(C(C)C)C1(C#N)CC1)CC` (racemic) [I.2-507]: the ABI1 inhibition entry in experiment [1] is “++++ (inhibition≥90%)”. Moreover, in the experiment on Brassica napus (BRSNS) (dosage 250 g/ha), the “Effect (BRSNS)” value is 30.

Turning to `COC(=O)C=C(C)C=CC(O)(C1CC1)C1(C#N)CC1` (racemic) [I.2-543], the “Effect (BRSNS)” value with Brassica napus (BRSNS) (dosage 25 g/ha) was 30.

Regarding `CCC(C=CC(O)(C(CC)CC)C1(C#N)CC1)=CC(=O)OC` (racemic) [I.2-583], the ABI1 inhibition entry in experiment [1] is listed as “++++ (inhibition≥90%)”. In addition, the “Effect (BRSNS)” value in the experiment with Brassica napus (BRSNS) (dosage 250 g/ha) was 10-30.

As for `CC/C(C#CC(O)(C1CC1)C1(C#N)CC1)=C/C(=O)OC` (stereo not drawn) [I.1-618], the ABI1 inhibition entry in experiment [1] was “++++ (inhibition≥90%)”. The “Effect (BRSNS)” value in the experiment with Brassica napus (BRSNS) (dosage 25 g/ha) worked out at 30.

On to `CC/C(C#CC(O)(C1CCCCC1)C1(C#N)CC1)=C/C(=O)OC` (stereo not drawn) [I.1-678], for which, in experiment [1], the ABI1 inhibition result is on record as “++++ (inhibition≥90%)”. Also, the “Effect (BRSNS)” value with Brassica napus (BRSNS) (dosage 250 g/ha) is listed as 10-30.
